Square brackets hold non-standard residues; d marks the D form. Peptide text beside a SMILES is read from it. * marks the point of attachment. Cys(free,S-linked) = N[C@@H](CS*)C(=O)O; pGlu = O=C1CC[C@@H](C(=O)O)N1
Test system: C57BL/6 mice
Test: one-trial passive avoidance task, amnesia induced by cycloheximide
Type: in vivo
Conditions: 24 h after footshock and cycloheximide 20 mg/kg sc
Procedure: The effect on memory process was tested in a one-trial passive avoidance task in C57BL/6 mice. The learning procedure was fundamentally the same as that used by Burbach et al (Science; 221, 1310-1312, 1983). The apparatus consisted of an illuminated compartment attached to a dark one with grid floor. Mice were placed in the light compartment and allowed to enter the dark one. When mice entered the dark compartment, an electric footshock (0.4 mA, 3 sec) was delivered. Immediately after receiving a footshock, mice were administered with cycloheximide (20 mg/kg, sc), a protein synthesis inhibitor, and a retention test trial was carried out 24 hours later. Retention of passive avoidance behavior was measured by the latency to reenter the dark compartment after placing mice in the light compartment. Five minutes before the testing, mice were treated with 5 μl of peptide in a dose of 10 pg and 10 ng by intracerebroventricular injection through a hypodermic needle attached to a 25 μl syringe. Compounds of the present invention were dissolved in saline. […] Median latencies in peptide-treated groups were expressed as a percentage of that in control, and either Mann-WhitneyU test for latencies or chi-square test for percent of mice showing latencies longer than 50 seconds was used in statistical analysis. Number of mice used in each group was 9-22.

[1] = intracerebroventricular injection (10 pg and 10 ng tested; dose not stated per value) 5 min before retention test

Row | SMILES | median latency to reenter the dark compartment, as a percentage of that in control [1] | median latency to reenter the dark compartment, as a percentage of that in control (dose of 10 pg, intracerebroventricular injection 5 min before retention test)
1 | NCCCC[C@@H](NC(=O)[C@H]1CCCN1C(=O)[C@H](CSSC[C@H](N)C(=O)O)NC(=O)[C@H](CC(N)=O)NC(=O)[C@@H]1CCC(=O)N1)C(=O)O [Example 6] ([pGlu]NC(Cys(free,S-linked))[dP][dK]-OH) | 238% | 
2 | NCCCC[C@@H](NC(=O)[C@@H]1CCCN1C(=O)[C@H](CSSC[C@H](N)C(=O)O)NC(=O)[C@H](CC(N)=O)NC(=O)[C@@H]1CCC(=O)N1)C(=O)O [Example 1] ([pGlu]NC(Cys(free,S-linked))P[dK]-OH) | 238% | 
3 | N=C(N)NCCC[C@H](NC(=O)[C@@H]1CCCN1C(=O)[C@H](CSSC[C@H](N)C(=O)O)NC(=O)[C@H](CC(N)=O)NC(=O)[C@@H]1CCC(=O)N1)C(=O)NCC(N)=O [reference compound] ([pGlu]NC(Cys(free,S-linked))PRG-NH2) |  | 191 % of control
4 | C[C@H](NC(=O)[C@H](CSSC[C@H](N)C(=O)O)NC(=O)[C@H](CC(N)=O)NC(=O)[C@@H]1CCC(=O)N1)C(=O)N[C@H](CCCCN)C(=O)O [Example 8] ([pGlu]NC(Cys(free,S-linked))A[dK]-OH) | 179% | 

Reference: US4748154A, “Peptide derivatives, their production and use” (Takeda Chemical Industries, Ltd., priority 1985, dated 1988)
